Data on 1 compound can be found in US7641919B2, “Anti-bacterial plant compositions” (priority 2001, dated 2010).

Each structure is given as a SMILES string.

The subject of test [1] is E-Coli 25922. Briefly: zone of inhibition against E. coli. In kind it is cell-based, Escherichia coli. Particulars: HPLC fractions of methylene chloride extract; 6 mm disc; control 10 micrograms streptomycin. On the procedure:
An HPLC separation and isolation of an active fraction was attempted. High Pressure Liquid Chromatography (HPLC) was performed using a Discovery RP-Amide C-16 Column, 15 cm long, 4.6 mm wide (Supelco, Bellefort, Pa.). An isocratic, i.e. steady concentration, of a polar solvent phase was used. The solvent phase consisted of dilute phosphoric acid in methanol. The flow rate was 2 ml/minute. Therefore exit is dependent on MW (larger MW exists later) and polarity. The more polar the compound, the quicker it solubilizes into the solvent, but it is retained longer in the static phase of the column which holds back the more polar compounds. The fractions were monitored by UV, at 254 nm wave-length. One to three fraction per plant extract were collected at the indicated times. […] See, for example, FIGS. 1-3. Based on consideration of the relative polarity and molecular weights of the compounds identified for the respective plants in the total methylene chloride extract, the compounds in the right-most column of table 5 “Additional Compounds” lists compounds which are not observed in the active fraction of the extract of the respective plants, but which are likely to be present in smaller quantities (“trace amounts”) in the active fraction and which might contribute to the anti-mycobacterial activity.

Test [2] relates to M. smegmatis 607 (ATCC). The test can be described thus: agar-disk diffusion assay, zone of inhibition. In kind it is cell-based, Mycobacterium smegmatis. As to conditions: HPLC fractions of methylene chloride extract; 6 mm disc; control 10 micrograms streptomycin.
Test [3] concerns M. tuberculosis 27294 (a streptomycin sensitive strain, ATCC). Briefly: BACTEC-460 growth inhibition (growth index, 14CO2). In kind it is cell-based, Mycobacterium tuberculosis. As to conditions: positive control, 50 μg/ml.

In the case of `[H]/N=C(/N)N[C@H]1[C@H](O)[C@@H](O)[C@H](O[C@@H]2O[C@@H](C)[C@](O)(C=O)[C@H]2O[C@@H]2O[C@@H](CO)[C@H](O)[C@@H](O)[C@@H]2NC)[C@@H](N/C(N)=N\[H])[C@@H]1O` [Streptomycin], the “E-Coli 25922 ZOI (mm)” value in test [1] is 14 mm. Further, the “M. Smegmatis ATCC 607 ZOI (mm)” value in test [2] is recorded as 17 mm. Moreover, in test [3], the “Δ G1 (growth index change)” value is recorded as “Positive control Streptomycin (50 μg/ml) resulting in a Δ G1 of −2.8”.
